The subject of assay [1] is HCT-116 cells. As to the kind of experiment: Morphological changes by phase contrast inverted microscope, HCT-116. Format: cell-based, human. The settings on record: HCT-116, 48 h, 12.5-50 μg/mL, phase contrast 200x. The procedure:
(§1) Observation of morphological changes of apoptotic cells was performed according to the method with slight modifications. Briefly, 5 × 10^5 cells were incubated for 48 hours with or without selected compounds at concentrations of 12.5, 25, 40, and 50 μg/mL in a 60 mm diameter tissue culture dishes. The medium was discarded and cells were washed once with PBS. The morphological changes of the apoptotic cells were observed using phase contrast inverted microscope (Leica DMI 3000B, Germany) at 200x magnifications.

Assay [2] concerns MCF-7 cells. As to the kind of experiment: Morphological changes by phase contrast inverted microscope, MCF-7. It counts as cell-based, human. The note with it: MCF-7, 48 h, 12.5-50 μg/mL, phase contrast 200x. How it is done:
as §1

Consider `C=C1CCC(C(C)C)=CC2C1CC[C@@]2(C)O` (stereo partly shown) [Alismol, alismol], for which the “morphological changes (in words)” value in assay [1] and in assay [2] was “typical apoptotic features” each time.

Regarding `C=CC1(C)Cc2occ(C)c2C(=O)C1C(=C)C` (stereo not shown) [Curzerenone, curzerenone], the “morphological changes (in words)” value in assay [1] and in assay [2] was “typical apoptotic features” in each case.

The values are drawn from article PMC3671673, “In Vitro Morphological Assessment of Apoptosis Induced by Antiproliferative Constituents from the Rhizomes of Curcuma zedoaria” (Evidence-based Complementary and Alternative Medicine : eCAM, 2013).
